For 30 compounds, Binding % results are on record in patent US10111874B2, “Combination therapies for treatment of cancer” (Araxes Pharma LLC, priority 2014, dated 2018).

The target of the assay is T1, KRAS G12C 1-169, his-tagged protein, GDP-loaded (Homo sapiens, UniProt P01116, G12C).
T1 construct: KRAS G12C 1-169, his-tagged protein, GDP-loaded
T1 sequence (P01116 1-169 isoform P01116-2 G12C): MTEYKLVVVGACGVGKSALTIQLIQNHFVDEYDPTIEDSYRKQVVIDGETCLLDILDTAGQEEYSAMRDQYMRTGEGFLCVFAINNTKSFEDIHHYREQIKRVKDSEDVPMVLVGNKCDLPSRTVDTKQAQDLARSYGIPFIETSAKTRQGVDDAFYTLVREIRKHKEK
The experiment in a line: Biochemical assay: covalent binding to KRAS G12C analyzed by mass spectrometry. Also: test concentration or dose not given here. Particulars: compounds 48-246, measured at 2 h.
As to `C=CC(=O)N1CCN(c2ncnc3cc(-n4cc(Cl)ccc4=O)c(Cl)cc23)CC1` [Compound I-177, 1-(4-(4-acryloylpiperazin-1-yl)-6-chloroquinazolin-7-yl)-5-chloropyridin-2(1H)-one], the Binding % entry is “+ (+indicates binding activity from 5% to 25%)”. Then `C=CC(=O)Nc1ncc(C)c(-c2cc3ncnc(N4CCN(C(=O)C=C)CC4)c3cc2Cl)n1` [Compound I-178, N-(4-(4-(4-acryloylpiperazin-1-yl)-6-chloroquinazolin-7-yl)-5-methylpyrimidin-2-yl)acrylamide], with “+ (+indicates binding activity from 5% to 25%)”; and `C=CC(=O)N1CCN(c2ncnc3cc(-c4nc(N)ncc4C)c(Cl)cc23)CC1` [Compound I-179, 1-(4-(7-(2-amino-5-methylpyrimidin-4-yl)-6-chloroquinazolin-4-yl)piperazin-1-yl)prop-2-en-1-one], with “+ (+indicates binding activity from 5% to 25%)”; and `C=CC(=O)N1CCN(c2ncnc3cc(-c4cccc5cncnc45)c(Cl)cc23)CC1` [Compound I-180, 1-(4-(6-chloro-7,8′-biquinazolin-4-yl)piperazin-1-yl)prop-2-en-1-one], with “+ (+indicates binding activity from 5% to 25%)”.

As for `C=CC(=O)N1CCN(c2ncnc3cc(-n4ccc(Cl)cc4=O)c(Cl)cc23)CC1` [Compound I-181, 1-(4-(4-acryloylpiperazin-1-yl)-6-chloroquinazolin-7-yl)-4-chloropyridin-2(1H)-one], the Binding % result is on record as “+ (+indicates binding activity from 5% to 25%)”. For `C=CC(=O)N1CCN(c2c(C#N)cnc3cc(-c4ccccc4O)c(Cl)cc23)CC1` [Compound I-182, 4-(4-acryloylpiperazin-1-yl)-6-chloro-7-(2-hydroxyphenyl)quinoline-3-carbonitrile], the Binding % entry was “+++ (+++indicates binding activity greater than 50% and up to 75%)”. For the compound `C=CC(=O)N1CCN(c2ncnc3cc(-c4ccccc4-c4cn[nH]c4)c(Cl)cc23)CC1` [Compound I-183, 1-(4-(7-(2-(1H-pyrazol-4-yl)phenyl)-6-chloroquinazolin-4-yl)piperazin-1-yl)prop-2-en-1-one], the Binding % result is “+++ (+++indicates binding activity greater than 50% and up to 75%)”. The result for `C=CC(=O)N1CCN(c2c(C#N)cnc3cc(-c4cc(O)ccc4Cl)c(Cl)cc23)CC1` [Compound I-184, 4-(4-acryloylpiperazin-1-yl)-6-chloro-7-(2-chloro-5-hydroxyphenyl)quinoline-3-carbonitrile] reads “++++ (++++indicates binding activity greater than 75%)”. As for `C=CC(=O)N1CCN(c2ncnc3cc(-c4cccs4)c(Cl)cc23)CC1` [Compound I-185, 1-(4-(6-chloro-7-(thiophen-2-yl)quinazolin-4-yl)piperazin-1-yl)prop-2-en-1-one], the Binding % entry is “++ (++indicates binding activity greater than 25% and up to 50%)”. With `C=CC(=O)N1CCN(c2ncnc3cc(-c4ccccc4-c4nccs4)c(Cl)cc23)CC1` [Compound I-186, 1-(4-(6-chloro-7-(2-(thiazol-2-yl)phenyl)quinazolin-4-yl)piperazin-1-yl)prop-2-en-1-one], the Binding % entry was “+++ (+++indicates binding activity greater than 50% and up to 75%)”.

For the compound `C=CC(=O)N1CCN(c2ncnc3cc(-c4ccccc4-c4cncs4)c(Cl)cc23)CC1` [Compound I-187, 1-(4-(6-chloro-7-(2-(thiazol-5-yl)phenyl)quinazolin-4-yl)piperazin-1-yl)prop-2-en-1-one], the Binding % entry was “+++ (+++indicates binding activity greater than 50% and up to 75%)”. For `C=CC(=O)N1CCN(c2ncnc3cc(-c4cc(-c5cn[nH]c5)ccc4F)c(Cl)cc23)CC1` [Compound I-188, 1-(4-(6-chloro-7-(2-fluoro-5-(1H-pyrazol-4-yl)phenyl)quinazolin-4-yl)piperazin-1-yl)prop-2-en-1-one], the Binding % entry was “+++ (+++indicates binding activity greater than 50% and up to 75%)”. For the compound `C=CC(=O)N1CCN(C2=c3cc(Cl)c(-c4ccccc4F)cc3=NCN2C(N)=O)CC1` [Compound I-189, 4-(4-acryloylpiperazin-1-yl)-6-chloro-7-(2-fluorophenyl)quinazolin-3-carboxamide], the Binding % result was “++ (++indicates binding activity greater than 25% and up to 50%)”.

Regarding `C=CC(=O)N1CCN(c2ncnc3cc(-c4cnc(N)nc4C)c(Cl)cc23)CC1` [Compound I-190, 1-(4-(7-(2-amino-4-methylpyrimidin-5-yl)-6-chloroquinazolin-4-yl)piperazin-1-yl)prop-2-en-1-one], the Binding % entry is “+ (+indicates binding activity from 5% to 25%)”. For the compound `C=CC(=O)N1CCN(c2ncnc3cc(-c4cc(NC)ccc4C)c(Cl)cc23)CC1` [Compound I-191, 1-(4-(6-chloro-7-(2-methyl-5-(methylamino)phenyl)quinazolin-4-yl)piperazin-1-yl)prop-2-en-1-one], the Binding % entry was “+++ (+++indicates binding activity greater than 50% and up to 75%)”. As for `C=CC(=O)N1CCN(c2ncnc3cc(-c4c(F)cccc4C#N)c(Cl)cc23)CC1` [Compound I-192, 2-(4-(4-acryloylpiperazin-1-yl)-6-chloroquinazolin-7-yl)-3-fluorobenzonitrile], the Binding % result is “++ (++indicates binding activity greater than 25% and up to 50%)”. As for `C=CC(=O)N1CCN(c2ncnc3cc(-c4ccc(F)cc4C(N)=O)c(Cl)cc23)CC1` [Compound I-193, 2-(4-(4-acryloylpiperazin-1-yl)-6-chloroquinazolin-7-yl)-5-fluorobenzamide], the Binding % entry is “++ (++indicates binding activity greater than 25% and up to 50%)”.

As for `C=CC(=O)N1CCN(c2ncnc3cc(-c4c(F)cccc4OC)c(Cl)cc23)CC1` [Compound I-194, 1-(4-(6-chloro-7-(2-fluoro-6-methoxyphenyl)quinazolin-4-yl)piperazin-1-yl)prop-2-en-1-one], the Binding % entry was “++++ (++++indicates binding activity greater than 75%)”. As for `C#CC1CN(c2ncnc3cc(-c4ccc(F)cc4F)c(Cl)cc23)CCN1C(=O)C=C` (stereo not drawn) [Compound I-195, 1-(4-(6-chloro-7-(2,4-difluorophenyl)quinazolin-4-yl)-2-ethynylpiperazin-1-yl)prop-2-en-1-one], the Binding % result is “++++ (++++indicates binding activity greater than 75%)”. `C=CC(=O)N1CCN(c2c(C#N)cnc3cc(-c4cc(O)ccc4F)c(Cl)cc23)CC1` [Compound I-196, 4-(4-acryloylpiperazin-1-yl)-6-chloro-7-(2-fluoro-5-hydroxyphenyl)quinoline-3-carbonitrile]: the Binding % result is “++++ (++++indicates binding activity greater than 75%)”. Regarding `C=CC(=O)N1CCN(c2ncnc3cc(-c4cc(F)ccc4C(N)=O)c(Cl)cc23)CC1` [Compound I-197, 2-(4-(4-acryloylpiperazin-1-yl)-6-chloroquinazolin-7-yl)-4-fluorobenzamide], the Binding % entry was “++ (++indicates binding activity greater than 25% and up to 50%)”. Regarding `C=CC(=O)N1CCN(c2ncnc3cc(-c4csc5ccccc45)c(Cl)cc23)CC1` [Compound I-198, 1-(4-(7-(benzo[d]thiophen-3-yl)-6-chloroquinazolin-4-yl)piperazin-1-yl)prop-2-en-1-one], the Binding % result is “++++ (++++indicates binding activity greater than 75%)”. As for `C=CC(=O)N1CCN(c2ncnc3cc(-c4cccc5c4OC(F)(F)O5)c(Cl)cc23)CC1` [Compound I-200, 1-(4-(6-chloro-7-(2,2-difluorobenzo[d][1,3]dioxol-4-yl)quinazolin-4-yl)piperazin-1-yl)prop-2-en-1-one], the Binding % result was “++ (++indicates binding activity greater than 25% and up to 50%)”.

`C=CC(=O)N1CCN(c2ncnc3cc(-c4cccc5c4OCCO5)c(Cl)cc23)CC1` [Compound I-201, 1-(4-(6-chloro-7-(2,3-dihydrobenzo[d][1,4]dioxol-5-yl)quinazolin-4-yl)piperazin-1-yl)prop-2-en-1-one]: the Binding % entry is “+++ (+++indicates binding activity greater than 50% and up to 75%)”. `C=CC(=O)N1CCN(c2ncnc3cc(-c4c(OC)ccc5ccccc45)c(Cl)cc23)CC1` [Compound I-202, 1-(4-(6-chloro-7-(2-methoxynaphthalen-1-yl)quinazolin-4-yl)piperazin-1-yl)prop-2-en-1-one]: the Binding % entry is “+++ (+++indicates binding activity greater than 50% and up to 75%)”.

Take `C=CC(=O)N1CCN(c2ncnc3cc(-c4c(O)ccc(F)c4F)c(Cl)cc23)CC1` [Compound I-203, 1-(4-(6-chloro-7-(2,3-difluoro-6-hydroxyphenyl)quinazolin-4-yl)piperazin-1-yl)prop-2-en-1-one]: the Binding % entry is recorded as “++++ (++++indicates binding activity greater than 75%)”. Consider `C=CC(=O)N1CCN(c2ncnc3cc(-c4ccc(F)cc4F)c(C(F)(F)F)cc23)CC1` [Compound I-204, 1-(4-(7-(2,4-difluorophenyl)-6-(trifluoromethyl)quinazolin-4-yl)piperazin-1-yl)prop-2-en-1-one], for which the Binding % result was “+++ (+++indicates binding activity greater than 50% and up to 75%)”. Then `C=CC(=O)N1CCN(c2ncnc3cc(-c4cccc5c4CCC(=O)N5)c(Cl)cc23)CC1` [Compound I-205, 5-(4-(4-acryloylpiperazin-1-yl)-6-chloroquinazolin-7-yl)-3,4-dihydroquinolin-2(1H)-one], with “+ (+indicates binding activity from 5% to 25%)”. Take `C=CC(=O)N1CCN(c2ncnc3cc(-c4cc(O)c(F)cc4F)c(Cl)cc23)CC1` [Compound I-206, 1-(4-(6-chloro-7-(2,4-difluoro-5-hydroxyphenyl)quinazolin-4-yl)piperazin-1-yl)prop-2-en-1-one]: the Binding % result is “++++ (++++indicates binding activity greater than 75%)”. Regarding `C=CC(=O)N1CCN(c2ncnc3cc(-c4cc(O)ccc4Cl)c(C(F)(F)F)cc23)CC1` [Compound I-207, 1-(4-(7-(2-chloro-5-hydroxyphenyl)-6-(trifluoromethyl)quinazolin-4-yl)piperazin-1-yl)prop-2-en-1-one], the Binding % entry is “++++ (++++indicates binding activity greater than 75%)”.
